Experimental data from PubChem BioAssay (NCI).
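Cultured in 96-well plates, cells were exposed to test compound for 48 hours across five concentrations. TGI: total growth inhibition.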

How the values were obtained:
Assay in all cases: NCI tumour cell line growth inhibition, 48 h
HT29 colon = test system: HT29 colon
NCI-H522 lung = test system: NCI-H522 lung
PC-3 prostate = test system: PC-3 prostate
HOP-62 NSCLC = test system: HOP-62 NSCLC
MDA-MB-435 = test system: MDA-MB-435
SNB-19 CNS = test system: SNB-19 CNS
SF-268 CNS = test system: SF-268 CNS
NCI-H23 lung = test system: NCI-H23 lung
UACC-257 melanoma = test system: UACC-257 melanoma
OVCAR-5 ovarian = test system: OVCAR-5 ovarian
HL-60(TB) leukemia = test system: HL-60(TB) leukemia
IGROV1 ovarian = test system: IGROV1 ovarian
MOLT-4 leukemia = test system: MOLT-4 leukemia
SF-295 CNS = test system: SF-295 CNS
HCC-2998 colon = test system: HCC-2998 colon
BT-549 breast = test system: BT-549 breast
U251 CNS = test system: U251 CNS
TK-10 renal = test system: TK-10 renal
CAKI-1 renal = test system: CAKI-1 renal
UACC-62 melanoma = test system: UACC-62 melanoma
NCI-H460 lung = test system: NCI-H460 lung
MALME-3M melanoma = test system: MALME-3M melanoma
786-0 renal = test system: 786-0 renal
SK-OV-3 ovarian = test system: SK-OV-3 ovarian
KM12 colon = test system: KM12 colon
A549 NSCLC = test system: A549 NSCLC
SN12C renal = test system: SN12C renal
T-47D breast = test system: T-47D breast
CCRF-CEM leukemia = test system: CCRF-CEM leukemia
ACHN renal = test system: ACHN renal
HCT-15 colon = test system: HCT-15 colon
DU-145 prostate = test system: DU-145 prostate
SK-MEL-5 melanoma = test system: SK-MEL-5 melanoma
SK-MEL-28 melanoma = test system: SK-MEL-28 melanoma
OVCAR-3 ovarian = test system: OVCAR-3 ovarian
HOP-92 NSCLC = test system: HOP-92 NSCLC
OVCAR-4 ovarian = test system: OVCAR-4 ovarian
HCT-116 colon = test system: HCT-116 colon
LOX IMVI melanoma = test system: LOX IMVI melanoma
MDA-N = test system: MDA-N
NCI/ADR-RES ovarian = test system: NCI/ADR-RES ovarian
SF-539 CNS = test system: SF-539 CNS
SNB-75 CNS = test system: SNB-75 CNS
RPMI-8226 leukemia = test system: RPMI-8226 leukemia
COLO 205 colon = test system: COLO 205 colon
SW-620 colon = test system: SW-620 colon
NCI-H226 lung = test system: NCI-H226 lung
MDA-MB-231 breast = test system: MDA-MB-231 breast
SR leukemia = test system: SR leukemia
OVCAR-8 ovarian = test system: OVCAR-8 ovarian
SK-MEL-2 melanoma = test system: SK-MEL-2 melanoma
M14 melanoma = test system: M14 melanoma
UO-31 renal = test system: UO-31 renal
HS 578T breast = test system: HS 578T breast
K-562 leukemia = test system: K-562 leukemia
EKVX NSCLC = test system: EKVX NSCLC
A498 renal = test system: A498 renal
MCF7 breast = test system: MCF7 breast
RXF 393 renal = test system: RXF 393 renal

## CC1OC2OC3C(OCC(O)C3O)OC(=O)[C@]34CCC(C)(C)CC3C3=CCC5[C@@]6(C)C[C@H](O)[C@H](OC7OC(CO)C(O)C(O)C7OC7OC(COC(=O)CC(C)(O)CC(=O)OC1C(OC1OC(CO)C(O)C(O)C1O)C2O)C(O)C(O)C7O)[C@@](C)(CO)C6CC[C@@]5(C)[C@]3(C)CC4 (some centres not stated)
HT29 colon
  TGI: 3.35 µM
NCI-H522 lung
  TGI: 5.89 µM
PC-3 prostate
  TGI: 6.85 µM
HOP-62 NSCLC
  TGI: 3.13 µM
MDA-MB-435
  TGI: 4.71 µM
SNB-19 CNS
  TGI: 16 µM
SF-268 CNS
  TGI: 10.5 µM
NCI-H23 lung
  TGI: 3.23 µM
UACC-257 melanoma
  TGI: 4.24 µM
OVCAR-5 ovarian
  TGI: 5.7 µM
HL-60(TB) leukemia
  TGI: 3.13 µM
IGROV1 ovarian
  TGI: 11.8 µM
MOLT-4 leukemia
  TGI: 12.7 µM
SF-295 CNS
  TGI: 3.72 µM
HCC-2998 colon
  TGI: 2.65 µM
BT-549 breast
  TGI: 19.3 µM
U251 CNS
  TGI: 9.26 µM
TK-10 renal
  TGI: 7.92 µM
CAKI-1 renal
  TGI: 17.7 µM
UACC-62 melanoma
  TGI: 3.38 µM
NCI-H460 lung
  TGI: 19.8 µM
MALME-3M melanoma
  TGI: 6.96 µM
786-0 renal
  TGI: 11.9 µM
SK-OV-3 ovarian
  TGI: 22.4 µM
KM12 colon
  TGI: 8.24 µM
A549 NSCLC
  TGI: 0.293 µM
SN12C renal
  TGI: 14.8 µM
T-47D breast
  TGI: 12.6 µM
CCRF-CEM leukemia
  TGI: 14 µM
ACHN renal
  TGI: 8.36 µM
HCT-15 colon
  TGI: 15.7 µM
DU-145 prostate
  TGI: 8.51 µM
SK-MEL-5 melanoma
  TGI: 0.272 µM
SK-MEL-28 melanoma
  TGI: 2.58 µM
OVCAR-3 ovarian
  TGI: 15.2 µM
HOP-92 NSCLC
  TGI: 4.31 µM
OVCAR-4 ovarian
  TGI: 16.1 µM
HCT-116 colon
  TGI: 10.3 µM
LOX IMVI melanoma
  TGI: 12.1 µM
MDA-N
  TGI: 2.65 µM
NCI/ADR-RES ovarian
  TGI: 11.7 µM
SF-539 CNS
  TGI: 15.5 µM
SNB-75 CNS
  TGI: 6.79 µM
RPMI-8226 leukemia
  TGI: 10.2 µM
COLO 205 colon
  TGI: 4.52 µM
SW-620 colon
  TGI: 11.2 µM
NCI-H226 lung
  TGI: 22.7 µM
MDA-MB-231 breast
  TGI: 16.4 µM
SR leukemia
  TGI: 12.4 µM
OVCAR-8 ovarian
  TGI: 13.1 µM
SK-MEL-2 melanoma
  TGI: 3.37 µM
M14 melanoma
  TGI: 8.44 µM
UO-31 renal
  TGI: 5.31 µM
HS 578T breast
  TGI: 18.6 µM

## N#Cc1ccnc(C(=O)N2CCCC2C(=O)O)c1 (configuration not stated)
K-562 leukemia
  TGI: > 100 µM
HT29 colon
  TGI: > 100 µM
NCI-H522 lung
  TGI: > 100 µM
PC-3 prostate
  TGI: > 100 µM
HOP-62 NSCLC
  TGI: > 100 µM
MDA-MB-435
  TGI: > 100 µM
SNB-19 CNS
  TGI: > 100 µM
EKVX NSCLC
  TGI: > 100 µM
SF-268 CNS
  TGI: > 100 µM
A498 renal
  TGI: > 100 µM
NCI-H23 lung
  TGI: > 100 µM
UACC-257 melanoma
  TGI: > 100 µM
OVCAR-5 ovarian
  TGI: > 100 µM
HL-60(TB) leukemia
  TGI: > 100 µM
IGROV1 ovarian
  TGI: > 100 µM
MOLT-4 leukemia
  TGI: > 100 µM
SF-295 CNS
  TGI: > 100 µM
HCC-2998 colon
  TGI: > 100 µM
BT-549 breast
  TGI: > 100 µM
U251 CNS
  TGI: > 100 µM
TK-10 renal
  TGI: > 100 µM
MCF7 breast
  TGI: > 100 µM
CAKI-1 renal
  TGI: > 100 µM
UACC-62 melanoma
  TGI: > 100 µM
NCI-H460 lung
  TGI: > 100 µM
MALME-3M melanoma
  TGI: > 100 µM
786-0 renal
  TGI: > 100 µM
KM12 colon
  TGI: > 100 µM
A549 NSCLC
  TGI: > 100 µM
SN12C renal
  TGI: > 100 µM
T-47D breast
  TGI: > 100 µM
CCRF-CEM leukemia
  TGI: > 100 µM
ACHN renal
  TGI: > 100 µM
HCT-15 colon
  TGI: > 100 µM
DU-145 prostate
  TGI: > 100 µM
SK-MEL-5 melanoma
  TGI: > 100 µM
SK-MEL-28 melanoma
  TGI: > 100 µM
OVCAR-3 ovarian
  TGI: > 100 µM
HOP-92 NSCLC
  TGI: > 100 µM
OVCAR-4 ovarian
  TGI: > 100 µM
HCT-116 colon
  TGI: > 100 µM
LOX IMVI melanoma
  TGI: > 100 µM
MDA-N
  TGI: > 100 µM
NCI/ADR-RES ovarian
  TGI: > 100 µM
SF-539 CNS
  TGI: > 100 µM
SNB-75 CNS
  TGI: > 100 µM
RPMI-8226 leukemia
  TGI: > 100 µM
COLO 205 colon
  TGI: > 100 µM
SW-620 colon
  TGI: > 100 µM
NCI-H226 lung
  TGI: > 100 µM
MDA-MB-231 breast
  TGI: > 100 µM
SR leukemia
  TGI: > 100 µM
OVCAR-8 ovarian
  TGI: > 100 µM
RXF 393 renal
  TGI: > 100 µM
SK-MEL-2 melanoma
  TGI: > 100 µM
M14 melanoma
  TGI: > 100 µM
UO-31 renal
  TGI: > 100 µM
HS 578T breast
  TGI: > 100 µM
